Patent US20250288573A1 (H. LEE MOFFITT CANCER CENTER AND RESEARCH INSTITUTE, INC., priority 2018, published 2025)
Where two headings read alike, the source gives them in different places.

Experiments:
cereblon (CRBN) = cereblon (CRBN) (Homo sapiens, UniProt Q96SW2); assay: Kd and % inhibition from FI; format: binding; details: for inhibition at 200 µM: read-out: % inhibition @ 200 uM from *FI
CRBN = molecular target: T1, CRBN (Homo sapiens, UniProt Q96SW2); assay: Western blot for expression of CRBN relative to vinculin in human T cells (CRBN degradation); format: cell-based; details: for remaining activity at 10 µM / remaining activity at 0.01 µM: read-out: Relative Density of CRBN (% of DMSO); for remaining activity at 0.01 µM: 24 h
T1 construct: endogenous in cells; host or cells: primary human T cells / CD8+ T cells from peripheral blood
Description: Bortez=bortezomib; MG132=proteasome inhibitor; MLN4924=NEDD8 inhibitor.
This assay is a standard Western blot assay for expression of CRBN relative to vinculin.
[…] 0.1 percent DMSO was used as a vehicle control.

[1] = FI, read-out: Kd (FI) (converted)
[2] = cell does not state FI or ITC, read-out: Kd (A) FI/ITC

Chain of cereblon (CRBN) (Q96SW2 whole entry, species assumed): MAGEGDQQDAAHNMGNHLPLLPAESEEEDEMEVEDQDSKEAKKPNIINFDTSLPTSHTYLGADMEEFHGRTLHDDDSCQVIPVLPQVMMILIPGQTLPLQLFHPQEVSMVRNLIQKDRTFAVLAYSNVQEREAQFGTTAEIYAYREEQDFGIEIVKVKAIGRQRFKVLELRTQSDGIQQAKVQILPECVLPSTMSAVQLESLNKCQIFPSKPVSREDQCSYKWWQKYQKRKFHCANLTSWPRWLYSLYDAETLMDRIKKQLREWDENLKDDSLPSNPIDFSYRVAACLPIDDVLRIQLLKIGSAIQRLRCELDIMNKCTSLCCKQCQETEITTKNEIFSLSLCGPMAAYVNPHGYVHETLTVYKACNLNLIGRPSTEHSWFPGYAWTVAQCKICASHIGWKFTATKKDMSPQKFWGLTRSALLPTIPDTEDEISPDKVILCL
T1 sequence (Q96SW2 whole entry): as the sequence (Q96SW2 whole entry, species assumed) above

| Kd (cereblon (CRBN); [1]) [µM] | inhibition at 200 µM (cereblon (CRBN)) [%] | remaining activity at 10 µM (CRBN; 10uM) [%] | remaining activity at 0.01 µM (CRBN; 10nM, human T cells, 24 hours) [%] | Structure (SMILES) | other results |
| --- | --- | --- | --- | --- | --- |
| 14.3 ± 0.05 | 72 ± 0.8 | 102 | 125 | O=C(/C=C/c1cccc2c1CN(C1CCC(=O)NC1=O)C2=O)NCCOCCOCCNC(=O)/C=C/c1cccc2c1CN(C1CCC(=O)NC1=O)C2=O (stereo not shown) [SM3-003, (2E,2′E)-N,N′-((ethane-1,2-diylbis(oxy))bis(ethane-2,1-diyl))bis(3-(2-(2,6-dioxopiperidin-3-yl)-1-oxoisoindolin-4-yl)acrylamide)] | – |
| 13.6 ± 1.51 | – | – | – | Cc1ncsc1-c1ccc(CNC(=O)[C@@H]2C[C@@H](O)CN2C(=O)[C@@H](NC(=O)COCCOCCOCCOCCCc2cccc3c2CN(C2CCC(=O)NC2=O)C3=O)C(C)(C)C)cc1 (stereo partly drawn) [SR3-108, (2S,4R)-1-((2S)-2-(tert-Butyl)-18-(2-(2,6-dioxopiperidin-3-yl)-1-oxoisoindolin-4-yl)-4-oxo-6,9,12,15-tetraoxa-3-azaoctadecanoyl)-4-hydroxy-N-(4-(4-methylthiazol-5-yl)benzyl)pyrrolidine-2-carboxamide] | – |
| 11.1 ± 0.58 | 76.2 ± 1.54 | 12.4 | 53.6 | O=C1CCC(N2Cc3c(CCCOCCOCCOCCCc4cccc5c4CN(C4CCC(=O)NC4=O)C5=O)cccc3C2=O)C(=O)N1 (stereo not shown) [SM2-129, 3,3′-((((Oxybis(ethane-2,1-diyl))bis(oxy))bis(propane-3,1-diyl))bis(1-oxoisoindoline-4,2-diyl))bis(piperidine-2,6-dione)] | – |
| 13.7 ± 0.7 | 88.9 ± 1.54 | 13.2 | 136 | O=C(COc1cccc2c1C(=O)N(C1CCC(=O)NC1=O)C2=O)NCCCOCCCNC(=O)COc1cccc2c1C(=O)N(C1CCC(=O)NC1=O)C2=O (stereo not shown) [SM2-126] | – |
| 15.2 ± 1.52 | 72.9 ± 1.19 | 85.3 | 110 | O=C(/C=C/c1cccc2c1CN(C1CCC(=O)NC1=O)C2=O)NCCOCCNC(=O)/C=C/c1cccc2c1CN(C1CCC(=O)NC1=O)C2=O (stereo not shown) [SM3-006, (2E,2′E)-N,N′-(Oxybis(ethane-2,1-diyl))bis(3-(2-(2,6-dioxopiperidin-3-yl)-1-oxoisoindolin-4-yl)acrylamide)] | – |
| – | – | 136 | 1.75 | O=C1CCC(N2Cc3c(C#CCOCCOCC#Cc4cccc5c4CN(C4CCC(=O)NC4=O)C5=O)cccc3C2=O)C(=O)N1 (stereo not shown) [SY4-065] | Kd (A) FI/ITC (cereblon (CRBN); cell does not state FI or ITC): n.b. |
| 2.53 ± 1.53 | – | – | 11.8 | O=C1CC[C@H](N2Cc3c(C#CCOCCOCC#Cc4cccc5c4CN([C@H]4CCC(=O)NC4=O)C5=O)cccc3C2=O)C(=O)N1 [XS01-008B2, (3S,3'S)-3,3′-(((Ethane-1,2-diylbis(oxy))bis(prop-1-yne-3,1-diyl))bis(1-oxoisoindoline-4,2-diyl))bis(piperidine-2,6-dione)] | – |
| – | – | 157 | – | O=C1C[C@H](NC(=O)c2cccc(NC(=O)CCCCCCC(=O)Nc3cccc(C(=O)N[C@H]4CC(=O)NC4=O)c3)c2)C(=O)N1 [XS01-066, N^1,N^8-Bis(3-(((S)-2,5-dioxopyrrolidin-3-yl)carbamoyl)phenyl)octanediamide] | – |
| – | – | 35 | – | O=C1C[C@H](NC(=O)CCCCCCCCC(=O)N[C@H]2CC(=O)NC2=O)C(=O)N1 [XS01-081, N^1,N^10-Bis((S)-2,5-dioxopyrrolidin-3-yl)decanediamide] | – |
| – | – | 133 | 116 | O=C1CCC(NC(=O)CCCCCCC(=O)NC2CCC(=O)NC2=O)C(=O)N1 (stereo not shown) [XS01-093, N^1,N^8-Bis(2,6-dioxopiperidin-3-yl)octanediamide] | – |
| – | – | 82.2 | 132 | Cc1nc2cccc(NC(=O)CCCCCCCCC(=O)Nc3cccc4nc(C)n(C5CCC(=O)NC5=O)c(=O)c34)c2c(=O)n1C1CCC(=O)NC1=O (stereo not shown) [MA10-090, N1,N10-bis(3-(2,6-Dioxopiperidin-3-yl)-2-methyl-4-oxo-3,4-dihydroquinazolin-5-yl)decanediamide] | – |
| – | – | 208 | 14.8 | Cc1nc2cccc(C#CCOCCOCCOCC#Cc3cccc4nc(C)n(C5CCC(=O)NC5=O)c(=O)c34)c2c(=O)n1C1CCC(=O)NC1=O (stereo not shown) [MA10-153, 3,3′-((((Oxybis(ethane-2,1-diyl))bis(oxy))bis(prop-1-yne-3,1-diyl))bis(2-methyl-4-oxoquinazoline-5,3(4H)-diyl))bis(piperidine-2,6-dione)] | CRBN Degradation ** (WB) (CRBN; grade (+) to (++++) or words, key not given): No Degradation |

The next lines start with the compound.

| Structure (SMILES) | Kd (cereblon (CRBN); [1]) [µM] | inhibition at 200 µM (cereblon (CRBN)) [%] | remaining activity at 10 µM (CRBN; 10uM) [%] | remaining activity at 0.01 µM (CRBN; 10nM, human T cells, 24 hours) [%] | other results |
| --- | --- | --- | --- | --- | --- |
| O=C1CCC(N2Cc3c(NC(=O)CCCCCCCC(=O)Nc4cccc5c4CN(C4CCC(=O)NC4=O)C5=O)cccc3C2=O)C(=O)N1 (stereo not shown) [EC1-151, N^1,N^9-Bis(2-(2,6-dioxopiperidin-3-yl)-1-oxoisoindolin-4-yl)nonanediamide] | 14.2 ± 3.16 | 46.7 ± 9 | 32 | 137 | – |
| O=C1CCC(N2C(=O)c3cccc(NC(=O)CCCCC(=O)Nc4cccc5c4C(=O)N(C4CCC(=O)NC4=O)C5=O)c3C2=O)C(=O)N1 (stereo not shown) [EC1-120, N^1,N^6-bis(2-(2,6-Dioxopiperidin-3-yl)-1,3-dioxoisoindolin-4-yl)adipamide] | – | 23.2 ± 20 | 16.8 | 95.3 | – |
| O=C1CCC(N2Cc3c(NC(=O)CCCCC(=O)Nc4cccc5c4CN(C4CCC(=O)NC4=O)C5=O)cccc3C2=O)C(=O)N1 (stereo not shown) [EC1-149, N^1,N^6-Bis(2-(2,6-dioxopiperidin-3-yl)-1-oxoisoindolin-4-yl)adipamide] | 22.8 ± 0.55 | 87.3 ± 2 | 1.74 | 76.3 | – |
| O=C1CCC(N2Cc3c(C#CCCCCCCC#Cc4cccc5c4CN(C4CCC(=O)NC4=O)C5=O)cccc3C2=O)C(=O)N1 (stereo not shown) [EC2-086, 3,3′-(Deca-1,9-diyne-1,10-diylbis(1-oxoisoindoline-4,2-diyl))bis(piperidine-2,6-dione)] | – | – | 10.3 | – | Kd (cereblon (CRBN); [2]): 86.5 ± 25.3 µM |
| O=C1CCC(N2C(=O)c3cccc(NC(=O)CCCCCCC(=O)Nc4cccc5c4C(=O)N(C4CCC(=O)NC4=O)C5=O)c3C2=O)C(=O)N1 (stereo not shown) | – | – | 11.7 | 44.2 | % inhibition @ 200 uM from *FI (cereblon (CRBN)): n.b. |
| O=C1CCC(N2C(=O)c3cccc(NC(=O)CCCC(=O)Nc4cccc5c4C(=O)N(C4CCC(=O)NC4=O)C5=O)c3C2=O)C(=O)N1 (stereo not shown) [EC1-117, N^1,N^5-bis(2-(2,6-Dioxopiperidin-3-yl)-1,3-dioxoisoindolin-4-yl)glutaramide] | – | 47.9 ± 11 | 19.8 | 114 | – |
| O=C(COc1cccc2c1C(=O)N(C1CCC(=O)NC1=O)C2=O)NCCCCNC(=O)COc1cccc2c1C(=O)N(C1CCC(=O)NC1=O)C2=O (stereo not shown) [SY2-060, N,N′-(Butane-1,4-diyl)bis(2-((2-(2,6-dioxopiperidin-3-yl)-1,3-dioxoisoindolin-4-yl)oxy)acetamide)] | – | 1.52 ± 1.91 | – | – | remaining activity at 0.01 µM (CRBN): 104% |
| O=C1CCC(N2C(=O)c3cccc(NC(=O)[C@H]4CC[C@H](C(=O)Nc5cccc6c5C(=O)N(C5CCC(=O)NC5=O)C6=O)CC4)c3C2=O)C(=O)N1 (stereo partly drawn) [EC1-135, (trans)-N^1,N^4-bis(2-(2,6-Dioxopiperidin-3-yl)-1,3-dioxoisoindolin-4-yl)cyclohexane-1,4-dicarboxamide] | – | – | 36.5 | 134 | % inhibition @ 200 uM from *FI (cereblon (CRBN)): n.b. |
| O=C1CCC(N2Cc3c(NC(=O)[C@H]4CC[C@H](C(=O)Nc5cccc6c5CN(C5CCC(=O)NC5=O)C6=O)CC4)cccc3C2=O)C(=O)N1 (stereo partly drawn) [EC1-154, (Trans)-N^1,N^4-Bis(2-(2,6-dioxopiperidin-3-yl)-1-oxoisoindolin-4-yl)cyclohexane-1,4-dicarboxamide] | – | 18.4 ± 77 | – | – | remaining activity at 0.01 µM (CRBN): 103%; remaining activity at 10 µM (CRBN): 44.2% |
| Cc1sc2c(c1C)C(c1ccc(Cl)cc1)=N[C@H](CC(=O)NCCCCC(=O)N[C@H]1CC(=O)NC1=O)c1nnc(C)n1-2 [XS01-089] | – | – | – | – | Kd (cereblon (CRBN); [2]): 353 ± 108 µM |
| O=C1CCC(N2Cc3c(NC(=O)CCCCCCCCC(=O)Nc4cccc5c4CN(C4CCC(=O)NC4=O)C5=O)cccc3C2=O)C(=O)N1 (stereo not shown) [EC1-152, N^1,N^10-Bis(2-(2,6-dioxopiperidin-3-yl)-1-oxoisoindolin-4-yl)decanediamide] | 15.5 ± 2.26 | 47.9 ± 2 | 28.2 | 133 | – |
| O=C1CCC(N2Cc3c(NC(=O)CCCC(=O)Nc4cccc5c4CN(C4CCC(=O)NC4=O)C5=O)cccc3C2=O)C(=O)N1 (stereo not shown) [EC1-148, N^1,N^5-Bis(2-(2,6-dioxopiperidin-3-yl)-1-oxoisoindolin-4-yl)glutaramide] | 23.6 ± 2.55 | 83.6 ± 4 | 2.97 | 73.8 | – |
| O=C1CCC(N2C(=O)c3cccc(NC(=O)CCCCCCCCC(=O)Nc4cccc5c4C(=O)N(C4CCC(=O)NC4=O)C5=O)c3C2=O)C(=O)N1 (stereo not shown) [EC1-132, N^1,N^10-bis(2-(2,6-Dioxopiperidin-3-yl)-1,3-dioxoisoindolin-4-yl)decanediamide] | – | – | 33 | 33.4 | % inhibition @ 200 uM from *FI (cereblon (CRBN)): n.b. |
| Cc1sc2c(c1C)C(c1ccc(Cl)cc1)=N[C@H](CC(=O)NCCCCC(=O)NC1CCC(=O)NC1=O)c1nnc(C)n1-2 (stereo partly shown) [EC2-092] | – | – | – | – | Kd (cereblon (CRBN); [2]): 226 ± 21.6 µM |
| O=C1CCC(N2Cc3ccc(NC(=O)CCCCCCC(=O)Nc4ccc5c(c4)C(=O)N(C4CCC(=O)NC4=O)C5)cc3C2=O)C(=O)N1 (stereo not shown) [EC2-063, N^1,N^8-bis(2-(2,6-Dioxopiperidin-3-yl)-3-oxoisoindolin-5-yl)octanediamide] | – | – | 13.5 | 38.8 | – |
